According to patent publication US10710986B2, “PD-1/PD-L1 inhibitors” (Gilead Sciences, Inc., priority 2018, dated 2020):

Molecular target: PD-1/PD-L1 (Homo sapiens (Human), UniProt Q9NZQ7)
Assay: PD-1/PD-L1 biochemical protein-protein interaction assay (ALPHA)
Settings: 0.3 nM His tagged PD-L1, 2.5 nM biotinylated Fc-PD-1, 60 minutes at 25° C., read-out: IC50 PD-L1-PD1

Sequence of PD-1/PD-L1 (Q9NZQ7 19-238): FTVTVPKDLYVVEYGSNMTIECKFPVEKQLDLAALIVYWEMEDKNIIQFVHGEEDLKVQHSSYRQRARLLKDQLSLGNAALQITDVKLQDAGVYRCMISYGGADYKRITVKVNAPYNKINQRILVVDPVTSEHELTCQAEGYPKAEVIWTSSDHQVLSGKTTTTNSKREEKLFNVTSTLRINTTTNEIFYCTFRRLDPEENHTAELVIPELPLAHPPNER

| Structure (SMILES) | IC50 |
| --- | --- |
| COc1nc(-c2cccc(-c3cccc(-c4cnc(CNC[C@@H]5CCC(=O)N5)c(OC)n4)c3Cl)c2Cl)cnc1CNCCC1CCCO1 (stereo partly shown) [compound 236] | 64 pM |
| COc1nc(-c2cccc(-c3cccc(-c4cnc(CNC(CCO)C5CC5)c(OC)n4)c3Cl)c2Cl)cnc1CNC[C@@H]1CCC(=O)N1 (stereo partly shown) [compound 237] | 64 pM |
| COCC(NCc1ncc(-c2cccc(-c3cccc(-c4cnc(CNC[C@@H]5CCC(=O)N5)c(OC)n4)c3Cl)c2Cl)nc1OC)C1CC1 (stereo partly shown) [compound 238] | 297 pM |
| COc1nc(-c2cccc(-c3cccc(-c4cnc(CN5CC(F)(CO)C5)c(OC)n4)c3Cl)c2Cl)cnc1CN1CC(F)(CO)C1 [compound 239] | 300 pM |
| COc1nc(-c2cccc(-c3cccc(-c4cnc(CN5CC(O)(CO)C5)c(OC)n4)c3Cl)c2Cl)cnc1CN1CC(O)(CO)C1 [compound 240] | 90 pM |
| COc1nc(-c2cccc(-c3cccc(-c4cnc(CN[C@H]5C[C@@](C)(O)C5)c(OC)n4)c3Cl)c2Cl)cnc1CN[C@H]1C[C@@](C)(O)C1 [compound 241] | 270 pM |
| COc1nc(-c2cccc(-c3cccc(-c4cnc(CNC[C@H]5C[C@H](O)C5)c(OC)n4)c3Cl)c2Cl)cnc1CNC[C@H]1C[C@H](O)C1 [compound 242] | 140 pM |
| COc1nc(-c2cccc(-c3cccc(-c4cnc(CNC[C@H]5C[C@@H](O)C5)c(OC)n4)c3Cl)c2Cl)cnc1CNC[C@H]1C[C@@H](O)C1 [compound 243] | 110 pM |
| COc1nc(-c2cccc(-c3cccc(-c4cnc(CNC[C@@H]5CC(C)(C)C(=O)N5)c(OC)n4)c3Cl)c2Cl)cnc1CNC[C@@H]1CC(C)(C)C(=O)N1 [compound 244] | 80 pM |
| COc1nc(-c2cccc(-c3cccc(-c4cnc(CNC[C@@H]5CC(C)(C)C(=O)N5)c(OC)n4)c3Cl)c2Cl)cnc1CNC[C@@H]1CCC(=O)N1 [compound 245] | 150 pM |
| COc1nc(-c2cccc(-c3cccc(-c4cnc(CNC[C@@H]5COC(=O)N5)c(OC)n4)c3Cl)c2Cl)cnc1CNC[C@@H]1CCC(=O)N1 [compound 246] | 210 pM |
| COc1nc(-c2cccc(-c3cccc(-c4cnc(CNC(CO)CCF)c(OC)n4)c3Cl)c2Cl)cnc1CNC[C@@H]1CCC(=O)N1 (stereo partly shown) [compound 247] | 130 pM |
| COc1nc(-c2cccc(-c3cccc(-c4cnc(CNC(CO)CF)c(OC)n4)c3Cl)c2Cl)cnc1CNC[C@@H]1CCC(=O)N1 (stereo partly shown) [compound 248] | 180 pM |
| COCC(NCc1ncc(-c2cccc(-c3cccc(-c4cnc(CNC[C@@H]5CCC(=O)N5)c(OC)n4)c3Cl)c2Cl)nc1OC)C(F)(F)F (stereo partly shown) [compound 249] | 2670 pM |
| COc1nc(-c2cccc(-c3cccc(-c4cnc(CN5CCN[C@@H](C)C5)c(OC)n4)c3Cl)c2Cl)cnc1CNC[C@@H]1CCC(=O)N1 [compound 250] | 120 pM |
| COc1nc(-c2cccc(-c3cccc(-c4cnc(CN5CCN[C@H](C)C5)c(OC)n4)c3Cl)c2Cl)cnc1CNC[C@@H]1CCC(=O)N1 [compound 251] | 70 pM |
| COc1nc(-c2cccc(-c3cccc(-c4cnc(CN5CC(F)(CO)C5)c(OC)n4)c3Cl)c2Cl)cnc1CNC[C@@H]1CCC(=O)N1 [compound 252] | 60 pM |
| COc1nc(-c2cccc(-c3cccc(-c4cnc(CN5CC(O)(CO)C5)c(OC)n4)c3Cl)c2Cl)cnc1CNC[C@@H]1CCC(=O)N1 [compound 253] | 90 pM |
| COc1nc(-c2cccc(-c3cccc(-c4cnc(CNC[C@@H]5CCC(=O)N5)c(OC)n4)c3Cl)c2Cl)cnc1CNC[C@H]1CCN1 [compound 254] | 110 pM |
| COc1nc(-c2cccc(-c3cccc(-c4cnc(CNC[C@@H]5CCC(=O)N5)c(OC)n4)c3Cl)c2Cl)cnc1CNCC1CNC1 [compound 255] | 80 pM |
| COc1nc(-c2cccc(-c3cccc(-c4cnc(CN5CCN(C=O)CC5)c(OC)n4)c3Cl)c2Cl)cnc1CNC[C@@H]1CCC(=O)N1 [compound 256] | 160 pM |
| COc1nc(-c2cccc(-c3cccc(-c4cnc(CN[C@H](CO)C(C)C)c(OC)n4)c3Cl)c2Cl)cnc1CNC[C@@H]1CCC(=O)N1 [compound 257] | 426 pM |
| COc1nc(-c2cccc(-c3cccc(-c4cnc(CN(CCO)CC(F)(F)F)c(OC)n4)c3Cl)c2Cl)cnc1CNC[C@@H]1CCC(=O)N1 [compound 258] | 673 pM |
| COc1nc(-c2cccc(-c3cccc(-c4cnc(CN5CCN[C@H](C6CC6)C5)c(OC)n4)c3Cl)c2Cl)cnc1CNC[C@@H]1CCC(=O)N1 [compound 259] | 273 pM |
| COc1nc(-c2cccc(-c3cccc(-c4cnc(CN5CC[C@@H](OC)[C@@H](F)C5)c(OC)n4)c3Cl)c2Cl)cnc1CNC[C@@H]1CCC(=O)N1 [compound 260] | 295 pM |
| COc1nc(-c2cccc(-c3cccc(-c4cnc(CN5CCCC(F)(CO)C5)c(OC)n4)c3Cl)c2Cl)cnc1CNC[C@@H]1CCC(=O)N1 (stereo partly shown) [compound 261] | 128 pM |
| COc1nc(-c2cccc(-c3cccc(-c4cnc(CNC[C@@H]5CC(C)C(=O)N5)c(OC)n4)c3Cl)c2Cl)cnc1CNC[C@@H]1CCC(=O)N1 (stereo partly shown) [compound 262] | 465 pM |
| COc1nc(-c2cccc(-c3cccc(-c4cnc(CN5C[C@@H](O)C[C@@H](F)C5)c(OC)n4)c3Cl)c2Cl)cnc1CNC[C@@H]1CCC(=O)N1 [compound 263] | 379 pM |

| Structure (SMILES) | IC50 |
| --- | --- |
| COc1nc(-c2cccc(-c3cccc(-c4cnc(CN5C[C@H](O)C[C@@H](F)C5)c(OC)n4)c3Cl)c2Cl)cnc1CNC[C@@H]1CCC(=O)N1 [compound 264] | 407 pM |
| COc1nc(-c2cccc(-c3cccc(-c4cnc(CN5C[C@H](O)[C@@H](F)C5)c(OC)n4)c3Cl)c2Cl)cnc1CNC[C@@H]1CCC(=O)N1 [compound 265] | 225 pM |
| COc1nc(-c2cccc(-c3cccc(-c4cnc(CN5C[C@H](O)[C@@H](C#N)C5)c(OC)n4)c3Cl)c2Cl)cnc1CNC[C@@H]1CCC(=O)N1 [compound 266] | 243 pM |
| COc1nc(-c2cccc(-c3cccc(-c4cnc(CNC5CCC(F)(F)C5)c(OC)n4)c3Cl)c2Cl)cnc1CNC[C@@H]1CCC(=O)N1 (stereo partly shown) [compound 267] | 606 pM |
| COc1nc(-c2cccc(-c3cccc(-c4cnc(CN[C@H]5C[C@H]5CO)c(OC)n4)c3Cl)c2Cl)cnc1CNC[C@@H]1CCC(=O)N1 [compound 268] | 352 pM |
| COc1nc(-c2cccc(-c3cccc(-c4cnc(CN5CCN(C6CC6)CC5)c(OC)n4)c3Cl)c2Cl)cnc1CNC[C@@H]1CCC(=O)N1 [compound 269] | 230 pM |
| COc1nc(-c2cccc(-c3cccc(-c4cnc(CN5CCC[C@@H](F)C5)c(OC)n4)c3Cl)c2Cl)cnc1CNC[C@@H]1CCC(=O)N1 [compound 270] | 378 pM |
| COc1nc(-c2cccc(-c3cccc(-c4cnc(CN5CCCC(F)(F)C5)c(OC)n4)c3Cl)c2Cl)cnc1CNC[C@@H]1CCC(=O)N1 [compound 271] | 1700 pM |
| COc1nc(-c2cccc(-c3cccc(-c4cnc(CN5CCCC(C(F)F)C5)c(OC)n4)c3Cl)c2Cl)cnc1CNC[C@@H]1CCC(=O)N1 (stereo partly shown) [compound 272] | 2430 pM |
| COc1nc(-c2cccc(-c3cccc(-c4cnc(CNC5CC6CC6C5)c(OC)n4)c3Cl)c2Cl)cnc1CNC[C@@H]1CCC(=O)N1 (stereo partly shown) [compound 273] | 265 pM |
| COc1nc(-c2cccc(-c3cccc(-c4cnc(CN[C@H]5C[C@@](C)(O)C5)c(OC)n4)c3Cl)c2Cl)cnc1CNC[C@@H]1CCC(=O)N1 [compound 274] | 117 pM |
| COc1nc(-c2cccc(-c3cccc(-c4cnc(CNC[C@H]5C[C@H](O)C5)c(OC)n4)c3Cl)c2Cl)cnc1CNC[C@@H]1CCC(=O)N1 [compound 275] | 64 pM |
| COc1nc(-c2cccc(-c3cccc(-c4cnc(CN[C@@H]5C[C@H]5CO)c(OC)n4)c3Cl)c2Cl)cnc1CNC[C@@H]1CCC(=O)N1 [compound 276] | 270 pM |
| COc1nc(-c2cccc(-c3cccc(-c4cnc(CN5CC[C@H](O)[C@@H](F)C5)c(OC)n4)c3Cl)c2Cl)cnc1CNC[C@@H]1CCC(=O)N1 [compound 277] | 652 pM |
| COc1nc(-c2cccc(-c3cccc(-c4cnc(CN5CC[C@@H](O)[C@@H](F)C5)c(OC)n4)c3Cl)c2Cl)cnc1CNC[C@@H]1CCC(=O)N1 [compound 278] | 538 pM |
| COc1nc(-c2cccc(-c3cccc(-c4cnc(CN5CC[C@@H](O)[C@H](F)C5)c(OC)n4)c3Cl)c2Cl)cnc1CNC[C@@H]1CCC(=O)N1 [compound 279] | 343 pM |
| COc1nc(-c2cccc(-c3cccc(-c4cnc(CN5CC[C@H](O)[C@H](F)C5)c(OC)n4)c3Cl)c2Cl)cnc1CNC[C@@H]1CCC(=O)N1 [compound 280] | 180 pM |
| COc1nc(-c2cccc(-c3cccc(-c4cnc(CNC[C@@H]5CCC(=O)N5)c(OC)n4)c3Cl)c2Cl)cnc1CNCC1COC(=O)N1 (stereo partly shown) [compound 281] | 1190 pM |
| COc1nc(-c2cccc(-c3cccc(-c4cnc(CN5CCC(F)(F)CC5)c(OC)n4)c3Cl)c2Cl)cnc1CNC[C@@H]1CCC(=O)N1 [compound 282] | 1570 pM |
| COc1nc(-c2cccc(-c3cccc(-c4cnc(CNC5CC(F)C5)c(OC)n4)c3Cl)c2Cl)cnc1CNC[C@@H]1CCC(=O)N1 (stereo partly shown) [compound 283] | 711 pM |
| COc1nc(-c2cccc(-c3cccc(-c4cnc(CNC5CC(F)(F)C5)c(OC)n4)c3Cl)c2Cl)cnc1CNC[C@@H]1CCC(=O)N1 [compound 284] | 816 pM |
| COc1nc(-c2cccc(-c3cccc(-c4cnc(CN5CCCC(NC(C)=O)C5)c(OC)n4)c3Cl)c2Cl)cnc1CNC[C@H]1CCC(=O)N1 (stereo partly shown) [compound 285] | 358 pM |
| COc1nc(-c2cccc(-c3cccc(-c4cnc(CNCC5(O)CCS(=O)(=O)C5)c(OC)n4)c3Cl)c2Cl)cnc1CNC[C@@H]1CCC(=O)N1 (stereo partly shown) [compound 286] | 60 pM |
| COc1nc(-c2cccc(-c3cccc(-c4cnc(CN5CC[C@H]6CNC(=O)[C@H]65)c(OC)n4)c3Cl)c2Cl)cnc1CNC[C@@H]1CCC(=O)N1 [compound 287] | 340 pM |
| CNC(=O)CNCc1ncc(-c2cccc(-c3cccc(-c4cnc(CNC[C@@H]5CCC(=O)N5)c(OC)n4)c3Cl)c2Cl)nc1OC [compound 288] | 260 pM |
| COc1nc(-c2cccc(-c3cccc(-c4cnc(CN5CC6(CC(O)C6)C5)c(OC)n4)c3Cl)c2Cl)cnc1CNC[C@@H]1CCC(=O)N1 [compound 289] | 60 pM |
| COc1nc(-c2cccc(-c3cccc(-c4cnc(CN5CCC6(CC5)NC(=O)NC6=O)c(OC)n4)c3Cl)c2Cl)cnc1CNC[C@@H]1CCC(=O)N1 [compound 290] | 259 pM |
